The nature of the data set: Vapour pressure of the pure substance. In kind it is physicochemical. The note with it: about 20° C. Here is the method:
“Volatility” according to the present invention is considered to be present for substances having a liquid or sublimation vapour pressure of the pure substance at 20° C. of at least about 0.013 Pascal (0.0001 mmHg), or at least about 0.1 Pascal. Vapour pressure can be measured according to ASTM Standard E1194-01 of November 2001. In certain embodiments according to the present invention, an upper limit for the vapour pressure of pure material should be less than about 67 Pascal (0.5 mmHg), or less than about 13 Pascal (0.1 mmHg) each at 20° C. Evaluation of whether a composition does vaporize sufficiently can be made by a panel of at least five people or by vapour head evaluation, e.g. with gas chromatography.

For the molecule `CNC(=O)C(C)(C(C)C)C(C)C` [WS-23, 2-Isopropyl-N,2,3-trimethylbutyramide], the vapour pressure entry is “about 0.53 Pascal”. The vapour pressure (equivalent of the Pascal value) worked out at 0.004 mmHg.
